# Entries after “also recorded” stand apart in the source; their conditions may differ. Structures can show the parent of a compound that is named as a salt.
# Columns and labels:
# [1] = system: dermal fibroblasts; assay: Activation of dermal fibroblasts (α-SMA and pro-Col I expression) by HaCaT condition medium; type: cell-based, human; conditions: for activation of fibroblasts: PGE2 receptor blockade in condition medium from HaCaT with increased water loss
# Protocol: FIGS. 3A-C. ENaC senses sodium concentration changes in keratinocytes and regulates downstream genes. Stratified HaCaT and fibroblast were co-cultured in transwell plates and subjected to increased water loss and control conditions for 16 hours. Expression of α-SMA and pro-Col I was detected in dermal fibroblasts (HDF) with their specific antibodies and visualized with fluorescence labeled secondary antibodies, Nuclei were stained with DAPI. (FIG. 3A, Panels A-D) Stratified HaCaT and fibroblasts in control condition. (FIG. 3A, Panels E-H) Stratified HaCaT and fibroblasts in increased water loss condition. (FIG. 3A, Panels I-L) Stratified ENaC knockdown HaCaT and fibroblasts in control condition. (FIG. 3A, Panels M-P) Stratified ENaC knockdown HaCaT and fibroblasts in increased water loss condition. (FIGS. 3B-C) The quantification of expression levels of α-SMA and pro-Col I by ImageJ. The scale bar represents 100 μm. *p<0.05, **p<0.01.
# FIGS. 4A-C. Show results from Example 1 where it was determine that PGE2 is important for the activation of fibroblasts by keratinocytes. As described in Example 1, condition medium of stratified wild type (or ENaC knockdown) HaCaT culture under increased water loss was collected and supplemented to fibroblasts for 24 hours. Expression of α-SMA and pro-collagen I in dermal fibroblasts was tested as described in
# FIG. 3. (FIG. 4A, Panels A-D) Wild type HaCaT condition medium (CM). (FIG. 4A, Panels E-H) ENaC-knockdown HaCaT condition medium. (FIG. 4A, Panels I-L) ENaC-knockdown HaCaT condition medium plus 10 μM of PGE2. (FIGS. 4B-C) Quantification of expression levels of α-SMA (FIG. 4B) and pro-Col I (FIG. 4C) was performed by ImageJ. The scale bar represents 100 μm. **p<0.01.
# Since the PGE2 is a downstream product of COX-2 and found to be involved in regulation of fibroblast cytoskeletal dynamics during airway epithelium injury (37), it was hypothesized that PGE2 signaling is important for keratinocyte-fibroblast signaling. […]
# [2] = system: rabbit ear hypertrophic scar; assay: Hypertrophic scar model in the rabbit ear (scar elevation index); type: in vivo; conditions: for scar elevation index (SEI): topical, harvested POD28
# Protocol: As described in Example 1, full thickness 7 mm excision wounds were made on the ventral side of the rabbit ears at PODO. Amiloride (an ENaC inhibitor) or Celecoxib (a COX-2 inhibitor) was applied to the wounds every other day for a total of three times starting at POD14. Wounds harvested at POD28 and histological analysis was performed. (A-D) Representative pictures of wound histology at POD28. Rabbit ear wounds with Amiloride treatment (B) and control (A) and with Celecoxib treatment (D) and its control (C) are shown. (E) The scar elevation index (SEI) was calculated and used to evaluate the scar formation. (F. G) SEI. Twelve wounds for each dose of treatment and 12 controls were used for the analysis. *P<0.05. Scar bar stands for 1000 μm. **p<0.01. […] The present invention is not limited by such a mechanism and an understanding of the mechanism is not necessary to practice the present invention.
# Sustained activation of dermal fibroblasts with accumulation of collagen is the main cause of hypertrophic scars (38, 39). […] The role of the ENaC-COX-2 pathway was investigated in vivo utilizing a well validated hypertrophic scar model in the rabbit ear (31, 40-43). Amiloride, an ENaC antagonist, was topically applied to the rabbit ear wounds after re-epithelialization was complete. Control scars, located on the contralateral ear, were treated with vehicle alone. In this model, absence of scar elevation gives a scar elevation index (SEI) of 1.0, and control wounds heal with an elevated scar (SEI >1). […] This reduction in scarring exceeds other therapies in validated model of hypertrophic scarring (14, 44, 45). In an identically designed experiment, Celecoxib, a COX-2 inhibitor, was applied on rabbit ear wounds to evaluate its effect on formation of hypertrophic scars. Similarly, treatment of 2 mg/wound of Celecoxib on rabbit ear wounds reduced the hypertrophy of the scar from 1.53±0.10 to 1.23±0.07 (FIG. 5C, D, and G).
# [3] = system: stratified keratinocytes (HaCaT); assay: Sodium flux by scanning ion-selective electrode technique (SIET) in stratified keratinocyte culture with increased water loss; type: cell-based, human; parameters: dose or concentration left out as unconfirmed; conditions: amiloride
# Protocol: As described in Example 1, HESCs or stratified keratinocytes (HaCaT) were cultured for 16 hours in the indicated conditions and ion fluxes were measured immediately after the samples were submerged in the bathing buffer. Sodium flux in HESCs culture with increased water loss (A) or increased media sodium concentration (10% more than control) (B). Sodium flux in stratified keratinocytes culture with increased water loss (C) or sodium concentration (D). Calcium (E) or chloride (F) flux in stratified keratinocytes culture with increased water loss. (G) Sodium flux in amiloride treated stratified keratinocytes culture with increased water loss. […] Background readings were obtained more than 1000 μm away from the sample. *p<0.05, **p<0.01.
# Increased trans-epidermal water loss results in higher sodium flux. To estimate the change of sodium flux of skin, the sodium flux was measured in human ex vivo skin culture (HESC), which retains important elements of in vivo skin and recapitulates the features of human wound repair (25, 26). […] To validate increased TEWL, expression levels of aquaporin 3 (AQP3) were measured, which has been reported as a molecular marker to indicate the hydration conditions of skin (27, 28). […]
# Changes in sodium flux were evaluated using a scanning ion-selective electrode technique (SIET). […]
# [4] = system: COX-2; assay: COX-2 mRNA expression by RT-qPCR in human foreskin keratinocytes (HK) culture; type: cell-based; conditions: HKs with calcium channel blocked
# Protocol: FIGS. 2A-F. Regulation of COX-2 and PGE2 by sodium flux is mediated by ENaC. FIGS. A and B show mRNA expression analysis of COX-2 as described in Example 1. (A) COX-2 mRNA expression in HESCs. HESCs were cultured with increased water loss condition for 4 or 16 hours (n=4). Total RNAs were isolated and RT-qPCR was performed. Gene expression was normalized according to the expression level of GAPDH. The level of COX-2 expression in HESCs treated with increased water loss was compared to that in control cells, which was set at 100% as expression level. (B) COX-2 mRNA expression keratinocytes culture. Stratified wild type or ENaC-knockdown HaCaT cells were cultured with increased water loss or sodium concentration condition for 16 hours (n=4). (C) PGE2 protein expression. Monolayer wild type or ENaC-knockdown HaCaT cells were cultured with increased sodium concentration condition for 16 hours (n=4). The amount of PGE2 in culture medium was measured by ELISA. (D) Western blot analysis (n=4). […] After 10, 30, 60, 240 minutes treatment, samples were harvested and western blot was performed with antibodies against phosphorylated-Akt, and Akt. β-actin was detected as a loading control. […] Cox-2 mRNA (E) and PGE2 (F) protein expression were analyzed by RT-qPCR and ELISA. *p<0.05, **p<0.01. […]
# [5] = system: ENaC a subunit; assay: Cleavage of the ENaC α subunit by western blotting in keratinocytes; type: cell-based, human; conditions: Nax knockdown keratinocytes
# Description: (§1) FIGS. 9A-I. Prss8 is an important protein downstream of Nax. […] As a primary function, Prss8 can activate ENaC by cleaving its a subunit. The cleaved and non-cleaved bands can be visualized by an ENaC specific protein with western blotting (H). […] However, the cleavage of the ENaC a subunit was enhance by trypsin in Nax knockdown keratinocytes (H and I). FIG. 10. The keratinocytes differentiation with or without knockdown of Nax. Keratinocytes can be differentiated in differentiation medium to form a multiple cell layer structure like skin epidermis (Panel A). […] Knockdown of Nax inhibited the keratinocyte differentiation (Panel B) with the absence of K10 marker in the cell (Panel E). […] The expression of differentiation markers are similar to the differentiated wild type keratinocytes.
# [6] = system: keratinocytes; assay: Keratinocyte differentiation in differentiation medium (K14/K10 markers); type: cell-based, human; conditions: Nax knockdown keratinocytes, daily incubation with differentiation medium containing 10 ug/ml trypsin
# Description: as §1
# (§2) To further confirm the pathway of Nax-Prss8-ENaC, a Prss8 homolog, trypsin was used to activate the ENaC with the knockdown of Nax.
# [7] = system: IL-8; assay: Expression of IL-8 in keratinocytes incubated with trypsin; type: cell-based, human; conditions: for up-regulation of IL-8: high concentration of sodium stimulation
# Description: as §1, §2
# [8] = system: COX-2; assay: Expression of COX-2 in keratinocytes incubated with trypsin; type: cell-based, human; conditions: for up-regulation of COX-2: high concentration of sodium stimulation
# [9] = system: IL-1β; assay: Expression of IL-1β in keratinocytes incubated with trypsin; type: cell-based, human; conditions: for up-regulation of IL-1β: high concentration of sodium stimulation
# Description: as §1, §2
# [10] = wild type keratinocytes, 10 μg/ml trypsin
compound,measurement,setting,value
CC(C)Oc1ccc2c(=O)c3cc(C(=O)O)ccc3oc2c1 [AH6809],activation of fibroblasts,[1],reduced activation of fibroblasts to control levels
CCCCCC(O)CCC1CCC(=O)N1CCCCCCC(=O)O (centres unmarked) [CAY10580],activation of fibroblasts,[1],reduced activation of fibroblasts to control levels
Cc1ccc(-c2cc(C(F)(F)F)nn2-c2ccc(S(N)(=O)=O)cc2)cc1 [Celecoxib],scar elevation index (SEI),"[2]; rabbit ear wounds, 2 mg/wound",1.23±0.07
"CCCCC[C@H](O)/C=C/[C@H]1[C@H](O)CC(=O)[C@@H]1C/C=C\CCCC(=O)O [PGE2, prostaglandin E2]",activation of fibroblasts (α-SMA and pro-Col I),"[1]; 10 μM PGE2 added to ENaC knockdown HaCaT culture conditioned medium, 24 hours",successfully rescued
N=C(N)NC(=O)c1nc(Cl)c(N)nc1N [amiloride],scar formation / hypertrophy of rabbit ear scar (in words),"[2]; rabbit ear scar treatment, 28 days post wounding",clearly showed the improvement of the scar formation
same,reduction of scar formation compared to control wound healing groups,"[2]; rabbit ear wounds, lower concentrations",did not show significant reduction
same,scar elevation index (SEI),"[2]; rabbit ear wounds, 0.5 mg/wound",1.06±0.05
same,enhanced sodium flux due to increased water loss,[3],completely abolished
COC(=O)C1=C(C)NC(C)=C(C(=O)OC2CCCN(Cc3ccccc3)C2)C1c1cccc([N+](=O)[O-])c1 (centres unmarked) [benidipine hydrochloride],increased expression levels of COX-2 during increased water loss or sodium concentration,[4],not abolished
trypsin,cleavage of the ENaC a subunit,[5],enhance
same,differentiation of keratinocytes,[6],re-established the differentiation; also recorded: successfully recovered the differentiation
same,up-regulation of IL-8,[7]; ENaC knockdown keratinocytes,recovered the up-regulation
same,up-regulation of IL-8,[7]; Nax knockdown keratinocytes,recovered the up-regulation; also recorded: up-regulated
same,expression of IL-8,[7]; [10],significantly increased
same,up-regulation of COX-2,[8]; ENaC knockdown keratinocytes,but not in ENaC knockdown cells
same,up-regulation of COX-2,[8]; Nax knockdown keratinocytes,recovered the up-regulation; also recorded: up-regulated
same,expression of COX-2,[8]; [10],significantly increased
same,up-regulation of IL-1β,[9]; ENaC knockdown keratinocytes,recovered the up-regulation
same,up-regulation of IL-1β,[9]; Nax knockdown keratinocytes,recovered the up-regulation; also recorded: up-regulated
same,expression of IL-1β,[9]; [10],significantly increased

# From US20210009682A1, “REDUCING CUTANEOUS SCAR FORMATION AND TREATING SKIN CONDITIONS” (Northwestern University, priority 2013, published 2021)
